According to patent publication US20170152285A1, “EXTRACTING METHOD OF KUGUACIN, PHARMACEUTICAL COMPOSITION COMPRISING THE KUGUACIN AND USE THEREOF” (priority 2015, published 2017):

How the values were obtained:
ERK = test: Western blot of phosphorylated ERK in THP-1 induced by P. gingivalis; format: cell-based, Human; conditions: 10 μM and 20 μM, induced by P. gingivalis for 30 mins
Procedure: (§1) To analyze the effect of the M. charantia extract on phosphorylation of MAPK proteins, THP-1 cell line cultured by the method described in Example 3 (2×10^6 cells/mL) was inoculated in 6-cm petridishes. Every 200 μL of cell culture was added 800 μL of fresh media containing DMSO with P. gingivalis (MOI=10), different concentrations of samples from Examples 1 and 2 or luteolin ([…]) and then co-cultured in a incubator at 37° C. in 5% of CO2 for 30 mins. Next, the cells were collected and centrifuged to remove the supernatant. After adding phosphate buffer solution (PBS), the collected cells were shook and washed repeatedly for 3 times. Then 100 μL of 1× lysis buffer was added in. The mixture was centrifuged at 12,000 rpm and 4° C. for 15 mins, and the supernatant was collected. The protein was quantified to the identical concentration. After protein electrophoresis was conducted, Western blot was conducted to analyze the level of phosphorylated ERK, JNK and p38 (i.e. p-ERK, p-JNK and p-p38).

IL-8 = test: Anti-inflammatory activity assay, IL-8 ELISA, THP-1 co-cultured with P. gingivalis; format: cell-based, Human; conditions: for inhibiting the expression of IL-8 induced by P. gingivalis: 1 μM to 5 μM, dose-dependent
Procedure: (§2) P. gingivalis (ATCC 33277/BCRC 14417) purchased from Bioresource Collection and Research Center of Food Industry Research and Development Institute in Hsinchu. P. gingivalis was incubated with TSB medium in an anaerobic incubator at 37° C. in an atmosphere of 86% of N2, 10% of CO2 and 4% of H2. The TSB medium comprises 15 g of Tryptic Soy broth (Becton, Dicksinson and company, U.S.A.), 2.5 g of yeast extract, 0.5 mL of Hemin and 0.1 mL of Vitamin K dissolved in 500 mL of deionized H2O.
(§3) THP-1 cell line (2×10^6 cells/mL) cultured by the method described in Example 3 was placed into a 96-well plate, and then 100 μL of RPMI medium without P. gingivalis was added or 0.1% dimethyl sulfoxide (DMSO) containing P. gingivalis with its multiplicity of infection (MOI) of 10 was added as negative controls. Different concentrations of samples from Examples 1 and 2 were added or luteolin (10 μM) was added as positive control. After co-culturing in an incubator at 37° C. in 5% of CO2 for 24 hours, the supernatants were collected. Then, the levels of IL-6 and IL-8 were analyzed by commercial ELISA kits for IL-6 and IL-8 (Invitrogen).
(§4) The term “MOI” is multiplicity of infection which means the number of the bacteria infecting each cell (the number of bacteria/the number of cells). For example, MOI=1 refers to every cell was infected by one bacterial colony.

IL-6 [1] = test: Anti-inflammatory activity assay, IL-6 ELISA, THP-1 co-cultured with P. gingivalis; format: cell-based, Human; conditions: for inhibiting the expression of IL-6 induced by P. gingivalis: 1 μM to 5 μM, dose-dependent
Procedure: as §2, §3, §4

iNOS = test: Periodontitis mouse model, iNOS mRNA in gum tissue; format: in vivo, C57BL/6 mice; conditions: injected into gum tissue with P. gingivalis, day 14
p-ERK, p-JNK and p-p38 = test: Western blot of phosphorylated MAPK proteins in THP-1 induced by P. gingivalis; format: cell-based, Human; conditions: 1 μM to 5 μM, induced by P. gingivalis for 30 mins, dose-dependent
Procedure: as §1

COX-2 = test: Periodontitis mouse model, COX-2 mRNA in gum tissue; format: in vivo, C57BL/6 mice; conditions: 5 μg injected into gum tissue, day 14
Procedure: (§5) To assess the effect of kuguacin on anti-inflammation in vivo, 6-week old C57BL/6 male mice were used in the present embodiment. The mice were purchased from Laboratory Animal Center of National Taiwan University, and fed with commercial chow diet and drinking water. After free access of food for 7 days, the mice were grouped for experiments, five animals for each group.
(§6) The concentration of P. gingivalis was adjusted to 1×10^9 CFU/mL by steriled PBS, then centrifuged at 10,000 rpm for 5 min. After removing the supernatant, the pellet was heated in water bath at 80° C. for 30 mins.
(§7) According to the method provided in the reference by Molon et al. to establish animal experiment model. Heat-killed P. gingivalis was injected into the gum tissue of C57BL/6 mice to cause inflammation. The mice were anesthetized by ethylether. Samples and bacteria solution were withdrawn using 0.3-mL insulin syringe needle. 10 μL of bacteria and samples were injected into the gum tissue of the mice. If blisters appeared, the injection was successful. […]
(§8) After sacrificing the mice at the 14th day of the experiment, the gums of lower jaw of the mice were sampled and the gene expressions of COX-2, IL-6 and TNF-α therein were analyzed.

IL-6 [2] = test: Periodontitis mouse model, IL-6 mRNA in gum tissue; format: in vivo, C57BL/6 mice; conditions: 5 μg injected into gum tissue, day 14
Procedure: as §5, §6, §7, §8

TNF-α = test: Periodontitis mouse model, TNF-α mRNA in gum tissue; format: in vivo, C57BL/6 mice; conditions: 5 μg injected into gum tissue, day 14
Procedure: as §5, §6, §7, §8

SMILES	inhibiting the phosphorylation of ERK (ERK)	inhibiting the expression of IL-8 by THP-1 cell line (IL-8; 5 μM to 20 μM)	inhibiting the expression of IL-6 by THP-1 cell line (IL-6 [1]; 5 μM to 20 μM)	inhibiting the expression of IL-8 induced by P. gingivalis (IL-8)	mRNA expression of iNOS in gum tissue (iNOS)	phosphorylation of the signal transduction proteins (p-ERK, p-JNK, p-p38) in THP-1 cells (p-ERK, p-JNK and p-p38)	mRNA expression of COX-2 in gum tissue, compared to group induced by P. gingivalis as 100% (COX-2)	inhibiting the expression of IL-6 induced by P. gingivalis (IL-6 [1])	mRNA expression of IL-6 in gum tissue, compared to group induced by P. gingivalis as 100% (IL-6 [2])	mRNA expression of TNF-α in gum tissue, compared to group induced by P. gingivalis as 100% (TNF-α)
C=C(C)/C=C/C[C@@H](C)[C@H]1CC[C@@]2(C)[C@@H]3C=C[C@@]45O[C@@H](O)[C@]3(CC[C@]12C)[C@@H]4CC[C@H](O)C5(C)C [fraction 532, 5β,19-epoxycucurbita-6,23(E),25(26)-triene-3β,19(R)-diol]	effective in inhibiting	effective on inhibiting	effective on inhibiting	–	–	–	–	–	–	–
CC(CC=CC(C)(C)O)C1CCC2(C)C3C=CC45OC(O)C3(CCC12C)C4CCC(O)C5(C)C (centres unmarked) [fraction 5211, 5,19-epoxycucurbita-6,23-diene-3,19,25-triol]	–	–	–	effective on inhibiting	increase	reduced	31%	effective on inhibiting	34%	40%
C[C@H](C/C=C/C(C)(C)O)[C@H]1CC[C@@]2(C)[C@@H]3[C@@H](O)C=C4[C@@H](CC[C@H](O)C4(C)C)[C@]3(C=O)CC[C@]12C [fraction 5212, 3,7,25-trihydroxycucurbita-5,23-dien-19-al]	–	–	–	effective on inhibiting	increase	reduced	49%	effective on inhibiting	67%	67%
